Earlier results on one compound are cited in patent publication US20090202672A1, “AQUACULTURE FEED, PRODUCTS, AND METHODS COMPRISING BENEFICIAL FATTY ACIDS” (Monsanto Company, priority 2008, published 2009).

Data set [1] deals with cell line from turbot, Scopthalmus maximus. Conditions: Ghioni et al 1999.
Data set [2] relates to established cell line from Atlantic salmon, Salmo salar. Particulars: Ghioni et al 2004.

Take `CC/C=C\C/C=C\C/C=C\C/C=C\CCCCC(=O)O` [SDA, stearidonic acid]: the “Conversion of SDA to EPA” value in data set [1] was “limited conversion of SDA to EPA”. For the same compound, in data set [2], the “Bioconversion of SDA to EPA and DHA” value is “bioconversion of SDA to EPA, but not DHA”.
